Where “and” joins values, the source holds several entries; their conditions need not be identical. Equal values may be shown once.
Test system: ovariectomized Sprague-Dawley rats
Assay: Morphine withdrawal rat hot flush model (naloxone-induced tail skin temperature rise)
Assay type: in vivo
Conditions: for morphine withdrawal hot flush model responsive to agent: data not shown
Source text: Simpkins et al. ((1983) Life Sci. 32:1957-1966) first published morphine withdrawal in the rat as a putative model for hot flushes, based on observations highlighting the similarity of symptoms of gonadal steroid withdrawal to those of opioid withdrawal. Although less severe, the signs and symptoms associated with clinical hot flushes, or estrogen deficiency, in the rat parallel those produced by naloxone-precipitated withdrawal in morphine dependent rats, including: 1) an increase in tail skin temperature; 2) a surge in luteinizing hormone; and 3) an increase in heart rate. Each of these responses is associated with an increase in sympathetic outflow, which is a current mechanistic hypothesis for hot flushes.
In this example, a modification of the original procedure of Simpkins et al. (1983) is used, employing ovariectomized Sprague-Dawley rats. Animals at 60 days of age (or 200-225 grams) are ovariectomized, and allowed a 14-day rest period to insure surgical recovery and clearance of endogenous ovarian hormones. Test compound administration (po or sc) is initiated on day 14 post-ovariectomy in a volume of 1 ml/kg. Once daily administration of test compounds continues through the end of the experiment. On days 15 and 17 post-ovariectomy, the rats are lightly anesthetized with isoflurane and a single 75 mg morphine (free base) pellet is surgically implanted subcutaneously.
On day 21 post-ovariectomy, animals are given ketamine (80 mg/kg; IM) 2 hours after final administration of the test compound. Following induction of the anesthesia, rats are then placed in individual plexiglass cages and temperature sensitive probes are applied to the dorsal side of the tail base. Temperature monitoring is initiated 30 minutes after administration of ketamine, and is recorded every 15 seconds for a 1-hr period. To induce morphine withdrawal, 1 mg/kg naloxone is given subcutaneously 15 minutes after start of temperature monitoring. A sharp rise in tail skin temperature typically occurs within 5 minutes post-naloxone injection, and two quantitative endpoints are made: 1) tail skin temperature at 15 minutes post-naloxone, and 2) area under the temperature response curve for the 45 minute post-naloxone measurement period.
Ethinyl estradiol is dosed orally at 0.3 mg/kg as a positive control. […] Using area under the curve measurements, the response induced by each compound is calculated as a percent inhibition of temperature increase versus the morphine control.

Molecule: CCOc1ccccc1OC(c1ccccc1)C1CNCCO1 (racemic) [reboxetine]
- % Inhibition vs. Morphine Control (rat, in vivo, sc, 5 mg/kg): 94%

Molecule: CCOc1ccccc1OC(c1ccccc1)C1CNCCO1 [(R,S)-Reboxetine, (R,S)-reboxetine]
- % Inhibition vs. Morphine Control (rat, in vivo, sc, 5 mg/kg): 94%

Molecule: CNCCCN1c2ccccc2CCc2ccccc21 [Desipramine, desipramine]
- % Inhibition vs. Morphine Control (PO, 10 mg/kg, area under the tail skin temperature curve, 45 min post-naloxone): 101%
- % Inhibition vs. Morphine Control (PO, 10 mg/kg, area under the tail skin temperature curve, 45 min post-naloxone, listed as desipramine): 101%

Molecule: C#C[C@]1(O)CC[C@H]2[C@@H]3CCc4cc(O)ccc4[C@H]3CC[C@@]21C [Ethinyl Estradiol, Ethinyl estradiol]
- % Inhibition vs. Morphine Control (PO, 0.3 mg/kg, area under the tail skin temperature curve, 45 min post-naloxone): 89% and 73% and 90%
- % Inhibition vs. Morphine Control (PO, 0.3 mg/kg, area under the tail skin temperature curve, 45 min post-naloxone, listed as Ethinyl estradiol): 70-90%

Molecule: Clc1cccc(Cl)c1N=C1NCCN1 [clonidine]
- morphine withdrawal hot flush model responsive to agent: responsive

Molecule: C#C[C@]1(O)CC[C@H]2[C@@H]3[C@H](C)CC4=C(CCC(=O)C4)[C@H]3CC[C@@]21C [tibolone]
- morphine withdrawal hot flush model responsive to agent: responsive

Molecule: medroxyprogesterone
- morphine withdrawal hot flush model responsive to agent: responsive

Reference: patent US20070015786A1, “Treatment of hot flashes, impulse control disorders and personality change due to a general medical condition” (Eli Lily and Company, priority 2003, published 2007)
